Source: patent US10584350B2, “Structurally modified COI1” (Board of Trustees of Michigan State University, priority 2016, dated 2020)
Entries after “also recorded” stand apart in the source; their conditions may differ.

B1: COI1A384V: modified Arabidopsis thaliana COI1 protein with valine at position 384 (SEQ ID NO:2); also names transgenic plants expressing it (protein, listed as Arabidopsis thaliana)
chain: MEDPDIKRCKLSCVATVDDVIEQVMTYITDPKDRDSASLVCRRWFKIDSETREHVTMALCYTATPDRLSRRFPNLRSLKLKGKPRAAMFNLIPENWGGYVTPWVTEISNNLRQLKSVHFRRMIVSDLDLDRLAKARADDLETLKLDKCSGFTTDGLLSIVTHCRKIKTLLMEESSFSEKDGKWLHELAQHNTSLEVLNFYMTEFAKISPKDLETIARNCRSLVSVKVGDFEILELVGFFKAAANLEEFCGGSLNEDIGMPEKYMNLVFPRKLCRLGLSYMGPNEMPILFPFAAQIRKLDLLYALLETEDHCTLIQKCPNLEVLETRNVIGDRGLEVLAQYCKQLKRLRIERGADEQGMEDEEGLVSQRGLIALAQGCQELEYMVVYVSDITNESLESIGTYLKNLCDFRLVLLDREERITDLPLDNGVRSLLIGCKKLRRFAFYLRQGGLTDLGLSYIGQYSPNVRWMLLGYVGESDEGLMEFSRGCPNLQKLEMRGCCFSERAIAAAVTKLPSLRYLWVQGYRASMTGQDLMQMARPYWNIELIPSRRVPEVNQQGEIREMEHPAHILAYYSLAGQRTDCPTTVRVLKEPI

Experiments:
JAZ9 gene expression = assay: qPCR of JA-responsive marker gene JAZ9; assay type: in vivo, Arabidopsis; conditions: 10 μM MeJA or 0.2 μM COR, 3 h
Method: (§1) Col-0 and transgenic seeds were germinated on half-strength MS medium. Five-day-old seedlings were transferred into liquid half-strength MS medium. Segregating coil-30 seeds were germinated on half-strength MS medium with 10 μM MeJA. and MeJA-resistant 5-d-old seedlings were transferred into liquid half-strength MS medium. Next, 10 μM MeJA (Sigma), 0.2 μM COR or 0.1% DMSO were applied to 12-d-old seedlings. Samples were collected after 3 h and total RNA was extracted using Qiagen RNeasy Mini kit (Qiagen). M-MLV Reverse transcriptase (Life Technologies) and SYBR Green master mix (Life Technologies) were used for reverse-transcription and real-time PCR. Primers used were: […]

COI1-JAZ9 interaction = assay: Quantitative liquid Y2H assays (Beta-Glo, RLU); assay type: cell-based, Arabidopsis; conditions: yeast
Method: Yeast EGY48 strain carrying the p8Op:LacZ reporter plasmid was co-transformed with pGilda:COI1 (or COI1 mutants) and pB42AD:JAZ9 (or other JAZs) (Clontech). Colonies were selected on SD minimal plates (BD Biosciences) supplemented with the—uracil (U)/-tryptophan (W)/-histidine (H) amino acid drop out solution (Clontech). Yeast colonies were cultured overnight in liquid SD-UWH medium, harvested, washed twice in sterile water, and the absorbance (OD600) of the cultures was adjusted to 0.2 in liquid SD galactose/raffinose-UWH medium (BD Biosciences).
For liquid Y2H assays, cultures were supplemented with designated concentrations of JA-Ile (10 or 30 μM), COR (1 μM), or DMSO. After 16-h incubation with ligands, the liquid cultures were processed through the Beta-Glo Assay system (Promega) for detecting the β-galactosidase activity. […] Protein expression in yeast was detected using anti-LexA antibody (1:5,000; Upstate Biotechnology) for detection of COI1 expression from pGilda vector and anti-HA (1:5,000; Roche Life Science) antibody for detection of JAZ9 expression in pB42AD vector.

[1] = tested on: COI1WT/A384V-JAZ9 co-receptor; assay: Coreceptor pull-down assay; assay type: binding, Arabidopsis; conditions: plant-expressed COI1, E. coli-expressed JAZ9
Method: Pull-down assays were performed with protein extracts from 4-mg pCOI1:COI1WT/A384V-4×c-Myc plants and 25 μg recombinant MBP-JAZ9-8×His. Assays were performed in the presence of JA-Ile or COR at various concentrations and incubated for 30 min at 4° C. in the binding buffer (Katsir et al., Proc Natl Acad Sci USA 105(19):7100-7105 (2008)). Eighty microliters of Ni resin (Invitrogen) were added, followed by an additional 15-min incubation period at 4° C. MBP-JAZ9-8×Hisbound Ni resin was washed three times on microcentrifuge spin columns with 0.25 mL binding buffer at 4° C. MBP-JAZ9-8×His was eluted from the resin with 100 μL of 300 mM imidazole. Proteins bound to MBP-JAZ9-8×His were analyzed by immunoblotting for the presence of COI1WT/A384V-4×c-Myc using anti-cMyc antibody. MBP-JAZ9-8×His recovered by the Ni affinity resin was detected by Coomassie blue staining.

root growth = assay: Root growth inhibition assays; assay type: in vivo, Arabidopsis; conditions: for sensitivity of plants to COR vs MeJA: root growth inhibition, 0.2 μM COR vs 10 μM MeJA, in vivo
Method: Col-0, segregating COI1-30, transgenic COI1WT, and COI1A384V seeds were surface-sterilized, cold-stratified, and germinated on half-strength MS agar media containing MeJA, COR, or DMSO at the indicated concentrations. Seedlings were grown under long-day light conditions (16-h light at 100 μE·m^2·s, and 8-h dark) for 10-12 days before scanning images of roots. Root lengths were measured using ImageJ software (see website at rsbweb.nih.gov/ij/).

PR1 gene expression = assay: qPCR of SA-responsive gene PR1; assay type: in vivo, Arabidopsis; conditions: plants expressing the protein
Method: as §1

Spodoptera exigua = assay: Insect feeding assays; assay type: in vivo; conditions: for average weight of larvae feeding on COI1-30 plants higher than larvae reared on these plants: S. exigua neonate larvae
Method: Insect bioassays were performed as described by Herde et al. (Methods Mol Biol 1011:51-61 (2013)). Briefly, eggs of Spodoptera exigua were obtained from Benzon Research, and four neonate Spodoptera exigua larvae were transferred to the center of each 6-wk-old Arabidopsis host plant. Plants were grown under 8-hour light (100 μE·m^2·s) and 16-h dark and covered with cup cages. Larval weights were determined after 9-12 days of feeding.

SID2 gene expression = assay: qPCR of SA-responsive gene SID2; assay type: in vivo, Arabidopsis; conditions: plants expressing the protein
Method: as §1

Pst DC3000 = assay: Bacterial infection assay, dip-inoculation; assay type: in vivo, Pseudomonas syringae pv tomato; conditions: 3 days after dip-inoculation
Method: (§2) The Pseudomonas syringae infection assays in Arabidopsis were performed as described by Yao et al. (Methods Mol Biol 1011:63-81 (2013)). In brief, 4- to 5-wk-old (12-h light/12-h dark) Arabidopsis plants were dip-inoculated with bacterial suspension (1×10^8 cfu/mL Pst DC3000 or Psm ES4326 in 0.25 mM MgCl2 solution with 0.025% Silwet-77) or syringe-infiltrated with bacterial suspension (1×10^6 cfu/mL Pst DC3118 or DB29 in 0.25 mM MgCl2 solution). Bacterial growth was determined by serial dilutions of plant extracts 3 or 4 days after inoculation. Homozygous COI1-30 plants were selected by genotyping before bacterial infection.

Psm ES4326 = assay: Bacterial infection assay, dip-inoculation; assay type: in vivo, Pseudomonas syringae pv maculicola; conditions: 3 days after dip-inoculation
Method: as §2

Molecule	induction of JAZ9 expression compared with that in COI1-30 plants (JAZ9 gene expression; COI1A384V L1 line)	JAZ9 gene expression in response to treatment compared with Col-0 or COI1WT plants (JAZ9 gene expression; COI1A384V lines)	JAZ9 gene expression after application (JAZ9 gene expression; Col-0 and COI1WT plants)	concentrations equivalent in promoting the COI1-JAZ9 interaction (COI1-JAZ9 interaction; JA-Ile is a mixture of active and inactive isomers, COR pure)	higher concentration required for robust formation of the COI1A384V-JAZ9 co-receptor than for the COI1WT-JAZ9 co-receptor [1]	less effective in COI A384V than in Col-0 and COI1WT (root growth inhibition) (root growth; 0.2 μM COR)	concentrations of comparable potency in inhibiting root growth (root growth; COI1A384V plants)	concentrations with equivalent effect on root growth inhibition (root growth; wild-type Col-0 plants)	expression of PR1 gene (PR1 gene expression)	weight of larvae compared with Col-0 (Spodoptera exigua; 12-day-old larvae, one-way ANOVA with Dunnett test)	average weight of larvae feeding on COI1-30 plants higher than larvae reared on these plants (Spodoptera exigua)	expression of SID2 gene (SID2 gene expression)	resistance / susceptibility to Pst DC3000 (bacterial growth and disease symptoms) (Pst DC3000)	resistance to Psm ES4326 compared with Col-0 or COI1WT plants (Psm ES4326)	level of defense against S. exigua (Spodoptera exigua; in vivo)	COR-dependent COI1-JAZ9 interaction (COI1-JAZ9 interaction; liquid Y2H, 1 μM COR)	JA-Ile-dependent COI1-JAZ9 interaction (COI1-JAZ9 interaction; liquid Y2H, 10 or 30 μM JA-Ile)	differential effect on JA-Ile-dependent vs COR-dependent COI1-JAZ9 interaction (COI1-JAZ9 interaction; liquid Y2H)	sensitivity of plants to COR vs MeJA (root growth)	sensitivity of plants to COR vs MeJA (root growth; listed as COI A384V)
CC[C@H]1C=C(C(=O)N[C@@]2(C(=O)O)C[C@H]2CC)[C@H]2CCC(=O)[C@H]2C1 [COR, coronatine]	eight-fold	significantly reduced	induced	0.1 µM	~100 fold	about 100 fold	200 nM	0.2 µM												
COI1WT: wild type COI1 (SEQ ID NO:1) expressed in COI1-30-null background; control transgenic lines									similarly low	No significant difference	six-fold	similarly low	highly susceptible							
B1									similarly low		five-fold	similarly low	significantly increased resistance	significantly increased resistance	almost wild-type levels	greatly reduced	less effect	preferably affects COR-dependent COI1-JAZ9 interaction	significantly less sensitive; also recorded: differentially sensitive	more sensitive
